In PubChem BioAssay (NCI):
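All cell lines were grown in 96-well plates and treated with compound for 48 hours. The concentration for 50% growth inhibition is given as GI50. The concentration for full growth arrest is given as TGI.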

Key:
Experiment in all cases: NCI anticancer screen, dose series, 48 h
SNB-75 CNS = system: SNB-75 CNS
HOP-92 NSCLC = system: HOP-92 NSCLC
U251 CNS = system: U251 CNS
HS 578T breast = system: HS 578T breast
SR leukemia = system: SR leukemia
MDA-MB-435 = system: MDA-MB-435
786-0 renal = system: 786-0 renal
CAKI-1 renal = system: CAKI-1 renal
SN12C renal = system: SN12C renal
OVCAR-4 ovarian = system: OVCAR-4 ovarian
OVCAR-8 ovarian = system: OVCAR-8 ovarian
OVCAR-3 ovarian = system: OVCAR-3 ovarian
MDA-MB-231 breast = system: MDA-MB-231 breast
A498 renal = system: A498 renal
UACC-257 melanoma = system: UACC-257 melanoma
HCT-116 colon = system: HCT-116 colon
MALME-3M melanoma = system: MALME-3M melanoma
SNB-19 CNS = system: SNB-19 CNS
NCI-H460 lung = system: NCI-H460 lung
CCRF-CEM leukemia = system: CCRF-CEM leukemia
HL-60(TB) leukemia = system: HL-60(TB) leukemia
DU-145 prostate = system: DU-145 prostate
LOX IMVI melanoma = system: LOX IMVI melanoma
RXF 393 renal = system: RXF 393 renal
RPMI-8226 leukemia = system: RPMI-8226 leukemia
SF-295 CNS = system: SF-295 CNS
IGROV1 ovarian = system: IGROV1 ovarian
UO-31 renal = system: UO-31 renal
PC-3 prostate = system: PC-3 prostate
NCI-H23 lung = system: NCI-H23 lung
SF-268 CNS = system: SF-268 CNS
SK-OV-3 ovarian = system: SK-OV-3 ovarian
SK-MEL-5 melanoma = system: SK-MEL-5 melanoma
EKVX NSCLC = system: EKVX NSCLC
SF-539 CNS = system: SF-539 CNS
SK-MEL-2 melanoma = system: SK-MEL-2 melanoma
MOLT-4 leukemia = system: MOLT-4 leukemia
M14 melanoma = system: M14 melanoma
K-562 leukemia = system: K-562 leukemia
NCI/ADR-RES ovarian = system: NCI/ADR-RES ovarian
BT-549 breast = system: BT-549 breast
KM12 colon = system: KM12 colon
OVCAR-5 ovarian = system: OVCAR-5 ovarian
HCC-2998 colon = system: HCC-2998 colon
T-47D breast = system: T-47D breast
NCI-H522 lung = system: NCI-H522 lung
MCF7 breast = system: MCF7 breast
ACHN renal = system: ACHN renal
SK-MEL-28 melanoma = system: SK-MEL-28 melanoma
TK-10 renal = system: TK-10 renal
HOP-62 NSCLC = system: HOP-62 NSCLC
NCI-H226 lung = system: NCI-H226 lung
HCT-15 colon = system: HCT-15 colon
A549 NSCLC = system: A549 NSCLC
UACC-62 melanoma = system: UACC-62 melanoma
COLO 205 colon = system: COLO 205 colon
HT29 colon = system: HT29 colon
SW-620 colon = system: SW-620 colon

CN1CCN(Cc2ccc(NC(=O)c3cncc(C#Cc4cnc5ccc(OCC(F)F)nn45)c3)cc2C(F)(F)F)CC1 was tested, and the GI50 (SNB-75 CNS) was 0.58 µM, the TGI (SNB-75 CNS) was 1.26 µM and the GI50 (HOP-92 NSCLC) was 0.101 µM. The TGI (HOP-92 NSCLC) was 0.359 µM, the GI50 (U251 CNS) was 0.646 µM and the TGI (U251 CNS) was 1.34 µM. It also gave a GI50 (HS 578T breast) of 0.944 µM, a TGI (HS 578T breast) of 3.2 µM and a GI50 (SR leukemia) of 0.206 µM. For the same compound, the TGI (SR leukemia) was 1.1 µM, the GI50 (MDA-MB-435) was 0.218 µM and the TGI (MDA-MB-435) was 0.812 µM. It also gave a GI50 (786-0 renal) of 0.451 µM, a TGI (786-0 renal) of 1.1 µM and a GI50 (CAKI-1 renal) of 0.473 µM. The TGI (CAKI-1 renal) was 1.39 µM, the GI50 (SN12C renal) was 0.5 µM and the TGI (SN12C renal) was 1.17 µM. For the same compound, the GI50 (OVCAR-4 ovarian) was 0.562 µM, the TGI (OVCAR-4 ovarian) was 1.51 µM and the GI50 (OVCAR-8 ovarian) was 0.705 µM. For the same compound, the TGI (OVCAR-8 ovarian) was 1.56 µM, the GI50 (OVCAR-3 ovarian) was 0.46 µM and the TGI (OVCAR-3 ovarian) was 1.26 µM. It also gave a GI50 (MDA-MB-231 breast) of 0.181 µM, a TGI (MDA-MB-231 breast) of 0.841 µM and a GI50 (A498 renal) of 1.37 µM. The TGI (A498 renal) was 2.54 µM, the GI50 (UACC-257 melanoma) was 0.282 µM and the TGI (UACC-257 melanoma) was 0.963 µM. The GI50 (HCT-116 colon) was 0.164 µM, the TGI (HCT-116 colon) was 0.606 µM and the GI50 (MALME-3M melanoma) was 0.12 µM. For the same compound, the TGI (MALME-3M melanoma) was 0.485 µM, the GI50 (SNB-19 CNS) was 1.09 µM and the TGI (SNB-19 CNS) was 2.85 µM. For the same compound, the GI50 (NCI-H460 lung) was 0.369 µM, the TGI (NCI-H460 lung) was 1.07 µM and the GI50 (CCRF-CEM leukemia) was 0.192 µM. It also gave a TGI (CCRF-CEM leukemia) of 4.31 µM, a GI50 (HL-60(TB) leukemia) of 0.222 µM and a TGI (HL-60(TB) leukemia) of 0.724 µM. It also gave a GI50 (DU-145 prostate) of 0.339 µM, a TGI (DU-145 prostate) of 0.929 µM and a GI50 (LOX IMVI melanoma) of 0.235 µM. The TGI (LOX IMVI melanoma) was 0.838 µM, the GI50 (RXF 393 renal) was 0.379 µM and the TGI (RXF 393 renal) was 1.06 µM. It also gave a GI50 (RPMI-8226 leukemia) of 0.515 µM, a TGI (RPMI-8226 leukemia) of 2.18 µM and a GI50 (SF-295 CNS) of 0.387 µM. It also gave a TGI (SF-295 CNS) of 1.2 µM, a GI50 (IGROV1 ovarian) of 0.242 µM and a TGI (IGROV1 ovarian) of 1.03 µM. For the same compound, the GI50 (UO-31 renal) was 0.571 µM, the TGI (UO-31 renal) was 1.2 µM and the GI50 (PC-3 prostate) was 0.457 µM. The TGI (PC-3 prostate) was 1.97 µM, the GI50 (NCI-H23 lung) was 0.34 µM and the TGI (NCI-H23 lung) was 1.23 µM. It also gave a GI50 (SF-268 CNS) of 0.52 µM, a TGI (SF-268 CNS) of 1.43 µM and a GI50 (SK-OV-3 ovarian) of 1.51 µM. It also gave a TGI (SK-OV-3 ovarian) of 3.78 µM, a GI50 (SK-MEL-5 melanoma) of 0.511 µM and a TGI (SK-MEL-5 melanoma) of 1.22 µM. The GI50 (EKVX NSCLC) was 0.348 µM, the TGI (EKVX NSCLC) was 1.02 µM and the GI50 (SF-539 CNS) was 0.438 µM. It also gave a TGI (SF-539 CNS) of 1.1 µM, a GI50 (SK-MEL-2 melanoma) of 0.6 µM and a TGI (SK-MEL-2 melanoma) of 1.28 µM. For the same compound, the GI50 (MOLT-4 leukemia) was 0.299 µM, the TGI (MOLT-4 leukemia) was 2.79 µM and the GI50 (M14 melanoma) was 0.167 µM. The TGI (M14 melanoma) was 0.619 µM, the GI50 (K-562 leukemia) was 0.005 µM and the TGI (K-562 leukemia) was 0.818 µM. For the same compound, the GI50 (NCI/ADR-RES ovarian) was 1.04 µM, the TGI (NCI/ADR-RES ovarian) was 5.09 µM and the GI50 (BT-549 breast) was 0.93 µM. The TGI (BT-549 breast) was 1.69 µM, the GI50 (KM12 colon) was 0.005 µM and the TGI (KM12 colon) was 0.739 µM. The GI50 (OVCAR-5 ovarian) was 0.68 µM, the TGI (OVCAR-5 ovarian) was 1.89 µM and the GI50 (HCC-2998 colon) was 0.516 µM. For the same compound, the TGI (HCC-2998 colon) was 1.61 µM, the GI50 (T-47D breast) was 0.419 µM and the TGI (T-47D breast) was 1.17 µM. For the same compound, the GI50 (NCI-H522 lung) was 0.666 µM, the TGI (NCI-H522 lung) was 1.53 µM and the GI50 (MCF7 breast) was 0.11 µM. For the same compound, the TGI (MCF7 breast) was 0.649 µM, the GI50 (ACHN renal) was 0.482 µM and the TGI (ACHN renal) was 1.21 µM. The GI50 (SK-MEL-28 melanoma) was 0.67 µM, the TGI (SK-MEL-28 melanoma) was 1.52 µM and the GI50 (TK-10 renal) was 0.749 µM. The TGI (TK-10 renal) was 1.46 µM, the GI50 (HOP-62 NSCLC) was 0.729 µM and the TGI (HOP-62 NSCLC) was 1.64 µM. It also gave a GI50 (NCI-H226 lung) of 0.451 µM, a TGI (NCI-H226 lung) of 1.27 µM and a GI50 (HCT-15 colon) of 0.207 µM. The TGI (HCT-15 colon) was 0.909 µM, the GI50 (A549 NSCLC) was 0.221 µM and the TGI (A549 NSCLC) was 0.612 µM. The GI50 (UACC-62 melanoma) was 0.63 µM, the TGI (UACC-62 melanoma) was 1.33 µM and the GI50 (COLO 205 colon) was 0.428 µM. It also gave a TGI (COLO 205 colon) of 1.15 µM, a GI50 (HT29 colon) of 0.282 µM and a TGI (HT29 colon) of 1 µM. It also gave a GI50 (SW-620 colon) of 0.275 µM and a TGI (SW-620 colon) of 1.2 µM.
